Patent publication US10806147B2, “Treatment method for a hydrocarbon-containing system using a biocide” (RHODIA OPERATIONS, priority 2011, dated 2020)
Where two headings read alike, the source gives them in different places.

Test system: sulphate-reducing prokaryotes (SRP)
Experimental: The bioreactor used was constructed from titanium; this construction eliminated the risk of any production of iron sulphides through corrosion, which in turn would react with injected THPS. […] The column was packed with low-iron sand (Fisher, UK) with a glass fibre plug at the base to prevent the draining of sand during filling. The column fittings (injection and production pipework) were constructed from 316 stainless steel (Swagelok).
The column was maintained at 1000 psig (70 barg) and 24° C.±1° C. The pressure was held between the pump head and the proportional release valve. The use of 1-way valves in the injection head permitted disconnection and maintenance of the pump without depressurisation of the column.
The pump used was a high-pressure liquid chromatography pump (PerkinElmer Series 100). The pump was operated in a continuous fashion at an injection rate of 1 mL/min, injecting into the head of the bioreactor.
Injection fluid was prepared daily on workdays, with three days of fluid prepared on Friday to cover the weekend. During the week, a single pump was used on a continuous basis. Over the weekend, three pumps were used, cycling in three hour injection windows. The injection fluid was stored in a polyethylene terephthalate (PET) nitrogen-pressurised vessel at 2° C.±1° C.
The North Sea seawater used throughout the study was collected from Bridlington, Yorkshire on a quarterly basis. It was de-oxygenated through nitrogen sparging over a 48 hour period. Metabolisable carbon was added to the seawater in the form of volatile fatty acids (VFA) in the ratio of 100 acetate:10 propionate:1 butyrate by weight. Acetate and propionate were added as salt in order to avoid acidification of the injection fluid, whilst butyrate was added as the acid. The pH of the injection fluid was between 7.5 and 8 before the addition of THPS. The VFA totalled 111 mg/L, which, if converted entirely to sulphide (i.e. none used for biomass growth), should permit the production of 67 mg/L H2S.
The bioreactor was inoculated using a mixed consortia of prokaryotes obtained from North Sea seawater and North Sea oil reservoirs. Rawwater Engineering Company Limited (RECL) maintained a mixed consortia of sulphate-reducing prokaryotes (SRP) in bioreactors under the experimental conditions required for the project (24° C., 1000 psig). These bioreactors were used solely for inoculation purposes. Both bioreactors increased the chances of successfully inoculating new bioreactors, by limiting the changes in environmental conditions the microbes were subjected to and thus limiting stress. The column was inoculated with microbes, shut-in for a fortnight and operated under batch flow conditions (140 mL fluid per day in equally spaced thirty-minute injection windows) until SRP were known to be established through the production of hydrogen sulphide.
Effluent samples were collected on a daily basis onto zinc acetate. This reacted with the volatile hydrogen sulphide to form stable zinc sulphide precipitate, which permitted analysis at a later time. All samples were analysed within six hours of collection. The samples were analysed through the standard methylene blue colourimetric procedure, which was calibrated monthly against the iodometric sulphide method.
Three trials were conducted: • Trial 1—Starting with a dose of 30 mg/L THPS, the dose concentration of THPS was reduced in 10 mg/L steps until sulphide recovery was observed. […] This indicated the minimum starting concentration of THPS required to convert the SRP from normal activity to biostasis.

Tetrakis(hydroxymethyl)phosphonium sulphate [THPS]
period of continued low hydrogen sulphide after removal of THPS, before gradual rise (Trial 1, after 86 days total biocide injection, THPS removed entirely): 25 to 27 days | increase in sulphide during dosing (Trial 1, dose reduced to 10 mg/L, 14 days): no significant increase in sulphide was recorded | biological activity and sulphide production on introduction of THPS (Trial 1, pre-soured bioreactor, 30 mg/L active THPS (60 mg/L Tolcide PS50A, incl. penetrant), continuous, 24 °C, 1000 psig): collapse in biological activity and sulphide production to sub-mg/L concentrations | biological activity and effluent sulphide on introduction of THPS (Trial 2, 30 mg/L THPS plus penetrant, continuous): immediate collapse of biological activity and effluent sulphide | effluent sulphide during reduced dosing (Trial 2, 20 and 10 mg/L THPS, biocide injected 91 days in total): remained suppressed | biostasis of the column (Trial 3, 5 mg/L THPS plus penetrant, slow inhibited increase in effluent sulphide): insufficient to keep the entire column under biostasis | effluent sulphide (Trial 3, dose increased to 20 mg/L THPS): the effluent sulphide collapsed and remained low | effluent sulphide (Trial 3, dose increased via 10 mg/L to 15 mg/L THPS): appeared to stabilise the effluent sulphide | growth of the SRP population (Trial 3, sour column, 5 mg/L THPS plus penetrant, continuous): rapidly halted the growth of the SRP population
